Patent EP0320984A2, “1,4-Dihydropyridine derivatives” (FUJIREBIO INC., priority 1987, dated 1989)

Columns and labels:
Thoracic aortas = experiment: Inhibitory activity on KCl-induced contraction of aorta (helical strips of thoracic aorta); set-up: species or system male rabbits; conditions: 10^-6M, 60min after addition; 30 mM KCl, rabbit aorta strips, 37°C
Method: 2. Experiment for inhibitory activity on KCl-induced contraction of aorta: Thoracic aortas were isolated from male rabbits and cut into helical strips. The preparations were mounted vertically in organ baths containing 30 ml of Krebs- Henseleit solution. […] Test and reference compounds were added to the bath 30 minutes after KCl treatment.

[1] = system: Rabbit platelet rich plasma (PRP); experiment: Inhibitory activity on platelet aggregation in rabbit platelet rich plasma (light transmission); assay type: cell-based; conditions: added to PRP 30 minutes before agent; for Inhibitory activity on platelet aggregation, PAF: compound 3x10^-6 (unit not given), Platelet activating factor (PAF) 10 mg/ml; for Inhibitory activity on platelet aggregation, ADP / Inhibitory activity on platelet aggregation, AA / Inhibitory activity on platelet aggregation, Collagen: compound 10^-4 (unit not given); for Inhibitory activity on platelet aggregation, ADP: Adenosine diphosphate (ADP) 5 mM; for Inhibitory activity on platelet aggregation, AA: Arachidonic acid (AA) 1 mM; for Inhibitory activity on platelet aggregation, Collagen: aggregating agent collagen
Method: 3. Experiment for inhibitory activity on platelet aggregation in rabbit:
Rabbit platelet rich plasma (PRP) was prepared by centrifugation of the citrated blood at 380 g for 10 minutes at 20°C. Test solution (10 µl) was added to PRP (200 µl) 30 minutes before treatment of aggregation agents (10 µl). The extent of aggregation was expressed with the maximum change in light transmission for PRP and platelet poor plasma was taken as a value of 100%

| SMILES | Inhibitory effect on KCl-induced contraction (Thoracic aortas) | Inhibitory activity on platelet aggregation, PAF [1] | Inhibitory activity on platelet aggregation, ADP [1] | Inhibitory activity on platelet aggregation, AA [1] | Inhibitory activity on platelet aggregation, Collagen [1] |
| --- | --- | --- | --- | --- | --- |
| C/C=C/C=C/COC(=O)C1=C(C)NC(C)=C(C(=O)OC/C=C/c2ccc(Cn3ccnc3)cc2)C1c1cccc([N+](=O)[O-])c1 (stereo not shown) [Example 15, (E)-2,(E)-4-hexadien-1-yl (E)-3-{4-(1-imidazolylmethyl)phenyl}2-propen-1-yl 1,4-dihydro-2,6-dimethyl-4-(3-nitrophenyl)pyridine-3,5-dicarboxylate] | 21.6% | 74.1% | 8.8% | 30.2% | 10.5% |
| COC(=O)C1=C(C)NC(C)=C(C(=O)OC/C=C/C=C/c2ccc(Cn3ccnc3)cc2)C1c1cccc([N+](=O)[O-])c1 (stereo not shown) [Example 19, 5-{4-(1-imidazolylmethyl)phenyl}-(E)-2,(E)-4-pentadien-1-yl methyl 1,4-dihydro-2,6-dimethyl-4-(3-nitrophenyl)pyridine-3,5-dicarboxylate] | 68.8% | 41.5% | 17.2% | 35.5% | 66.3% |
| COC(=O)C1=C(C)NC(C)=C(C(=O)OC/C=C/c2ccc(C(C)n3ccnc3)cc2)C1c1cccc([N+](=O)[O-])c1 (stereo not shown) [Example 24, (E)-3-{4-{1-(1-imidazolyl)ethyl}phenyl}-2-propen-1-yl methyl 1,4-dihydro-2,6-dimethyl-4-(3-nitrophenyl)pyridine-3,5-dicarboxylate] | 74.3% | 18.3% | 7.8% | 28.2% | 27.5% |
| COC(=O)C1=C(C)NC(C)=C(C(=O)OCCN(C)Cc2ccccc2)C1c1cccc([N+](=O)[O-])c1.Cl (stereo not shown) [NICARDIPINE, 1,4-dihydro-2,6-dimethyl-4-(3-nitrophenyl)pyridine-3,5-dicarboxylic acid-3-[2-(N-benzyl-N-methylamino)ethyl]ester-5-methyl ester hydrochloride, reference compound] | 91.1% |  | 6.9% |  | 3.6% |
| COC(=O)C1=C(C)NC(C)=C(C(=O)OC)C1c1ccccc1[N+](=O)[O-] [NIFEDIPINE, 1,4-dihydro-2,6-dimethyl-4-(2-nitrophenyl)pyridine-3,5-dicarboxylic acid dimethyl ester, reference compound] | 87.6% |  | 0% | 0.2% | 5.1% |
